The test system of the test is human red blood cells. The conditions noted are these: red cells of human.

Like-named read-outs stand apart in the source and are kept apart here. Residues, ends and D or L forms follow the SMILES beside them.

A word on the IC50: it is the concentration needed to halve the response being measured. For the compound `N=C(N)NCCC[C@H](NC(=O)[C@H](CCCNC(=N)N)NC(=O)[C@H](CCC(N)=O)NC(=O)[C@H](CCCNC(=N)N)NC(=O)[C@H](CCCNC(=N)N)NC(=O)[C@H](CCCCN)NC(=O)[C@H](CCCCN)NC(=O)[C@H](CCCNC(=N)N)NC(=O)CNC(=O)[C@H](Cc1ccc(O)cc1)NC(=O)[C@@H](N)CS)C(N)=O` [Peptide 1, reference compound] (H-CYGRKKRRQRR-NH2), the IC50 by setting is: (pH 5.5) over 20 µM; (pH 7.4) over 20 µM.
For the compound `CC[C@H](C)[C@H](NC(=O)[C@H](CCCCN)NC(=O)[C@@H](NC(=O)[C@H](CCC(N)=O)NC(=O)[C@H](CCCNC(=N)N)NC(=O)[C@@H](N)CS)[C@@H](C)CC)C(=O)N[C@@H](Cc1c[nH]c2ccccc12)C(=O)N[C@@H](Cc1ccccc1)C(=O)N[C@@H](CCC(N)=O)C(=O)N[C@@H](CC(N)=O)C(=O)N[C@@H](CCCNC(=N)N)C(=O)N[C@@H](CCCNC(=N)N)C(=O)N[C@@H](CCSC)C(=O)N[C@@H](CCCCN)C(=O)N[C@@H](Cc1c[nH]c2ccccc12)C(=O)N[C@@H](CCCCN)C(=O)N[C@@H](CCCCN)C(N)=O` [Peptide 2, reference compound], the IC50 by setting is: (pH 5.5) over 20 µM; (pH 7.4) over 20 µM.
Take `CC[C@H](C)[C@H](NC(=O)[C@H](C)NC(=O)[C@H](CCC(=O)O)NC(=O)[C@H](Cc1ccccc1)NC(=O)[C@H](CC(C)C)NC(=O)CNC(=O)[C@@H](N)CS)C(=O)N[C@@H](C)C(=O)NCC(=O)N[C@@H](Cc1ccccc1)C(=O)N[C@H](C(=O)N[C@@H](CCC(=O)O)C(=O)N[C@@H](CC(N)=O)C(=O)NCC(=O)N[C@@H](Cc1c[nH]c2ccccc12)C(=O)N[C@@H](CCC(=O)O)C(=O)NCC(=O)N[C@@H](CCSC)C(=O)N[C@H](C(=O)N[C@@H](CC(=O)O)C(=O)NCC(=O)N[C@@H](Cc1c[nH]c2ccccc12)C(=O)N[C@@H](Cc1ccc(O)cc1)C(=O)NCC(N)=O)[C@@H](C)CC)[C@@H](C)CC` [Peptide 3, reference compound] (H-CGLFEAIAGFIENGWEGMIDGWYG-NH2): the half-inhibitory concentration (IC50) was over 20 µM (pH 5.5) and over 20 µM (pH 7.4).
On to `CC[C@H](C)[C@H](NC(=O)[C@H](C)NC(=O)[C@H](CCC(=O)O)NC(=O)[C@H](Cc1ccccc1)NC(=O)[C@H](CC(C)C)NC(=O)CNC(=O)[C@@H](N)CS)C(=O)N[C@@H](CCC(=O)O)C(=O)NCC(=O)N[C@@H](Cc1ccccc1)C(=O)N[C@H](C(=O)N[C@@H](CCC(=O)O)C(=O)N[C@@H](CC(N)=O)C(=O)NCC(=O)N[C@@H](Cc1c[nH]c2ccccc12)C(=O)N[C@@H](CCC(=O)O)C(=O)NCC(=O)N[C@@H](CCSC)C(=O)N[C@H](C(=O)N[C@@H](CC(=O)O)C(=O)NCC(=O)N[C@@H](Cc1c[nH]c2ccccc12)C(=O)N[C@@H](Cc1ccc(O)cc1)C(=O)NCC(N)=O)[C@@H](C)CC)[C@@H](C)CC` [Peptide 4, reference compound], for which the IC50 is 16 µM (pH 5.5) and over 20 µM (pH 7.4).
The corresponding values for `CC[C@H](C)[C@H](NC(=O)[C@H](C)NC(=O)[C@H](Cc1c[nH]cn1)NC(=O)[C@H](Cc1ccccc1)NC(=O)[C@H](CC(C)C)NC(=O)CNC(=O)[C@@H](N)CS)C(=O)N[C@@H](C)C(=O)N[C@@H](Cc1c[nH]cn1)C(=O)N[C@@H](Cc1ccccc1)C(=O)N[C@H](C(=O)N[C@@H](Cc1c[nH]cn1)C(=O)NCC(=O)NCC(=O)N[C@@H](Cc1c[nH]c2ccccc12)C(=O)N[C@@H](Cc1c[nH]cn1)C(=O)NCC(=O)N[C@@H](CC(C)C)C(=O)N[C@H](C(=O)N[C@@H](Cc1c[nH]cn1)C(=O)NCC(=O)N[C@@H](Cc1c[nH]c2ccccc12)C(=O)N[C@@H](Cc1ccc(O)cc1)C(=O)NCC(=O)N[C@@H](Cc1ccc(O)cc1)C(=O)NCC(=O)N[C@@H](CCCNC(=N)N)C(=O)N[C@@H](CCCCN)C(=O)N[C@@H](CCCCN)C(=O)N[C@@H](CCCNC(=N)N)C(=O)N[C@@H](CCCNC(=N)N)C(=O)N[C@@H](CCC(N)=O)C(=O)N[C@@H](CCCNC(=N)N)C(=O)N[C@@H](CCCNC(=N)N)C(N)=O)[C@@H](C)CC)[C@@H](C)CC` [Peptide 7] (H-CGLFHAIAHFIHGGWHGLIHGWYGYGRKKRRQRR-NH2) are 5.9 µM and 0.3 µM.

The values are drawn from PMC6600388 (2019).
